Measurements from US20240124529A1, “ANTIVIRAL […]-[…]-CoV-2 PEPTIDES AND USES THEREOF” (Dana-Farber Cancer Institute, Inc., priority 2020, published 2024).
Bridge positions count the residues as written; N and C are the ends. Square brackets hold non-standard residues; d marks the D form. Peptide text beside a SMILES is read from it. S5 = C=CCCC[C@](C)(N)C(=O)O; Nle = CCCC[C@H](N)C(=O)O

How the values were obtained:
Proteinase K = Proteinase K (Parengyodontium album, UniProt P06873); test: in vitro; conditions: pH 7.4
Sequence of Proteinase K (P06873 106-384): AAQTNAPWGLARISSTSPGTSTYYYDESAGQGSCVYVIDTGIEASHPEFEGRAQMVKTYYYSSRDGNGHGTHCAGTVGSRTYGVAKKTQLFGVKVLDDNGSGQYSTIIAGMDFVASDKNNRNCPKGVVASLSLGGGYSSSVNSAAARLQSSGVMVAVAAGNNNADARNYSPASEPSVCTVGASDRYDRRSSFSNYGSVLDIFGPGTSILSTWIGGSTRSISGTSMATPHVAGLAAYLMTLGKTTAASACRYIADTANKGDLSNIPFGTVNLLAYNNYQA

[1] = assay type: physicochemical; conditions: 25-50 μM peptide in 50 mM potassium phosphate (pH 7.5) or water

| Compound | half-life (Proteinase K) [min] | alpha-helical structure in solution by circular dichroism [1] | IC50 (SARS-CoV-2) [µM] |
| --- | --- | --- | --- |
| CCCC[C@@H]1NC(=O)[C@H](CCC(=O)O)NC(=O)[C@H](Cc2ccc(O)cc2)NC(=O)[C@@](C)(NC(=O)[C@H](CC(C)C)NC(=O)[C@H](CC(=O)O)NC(=O)[C@H](CC(C)C)NC(=O)[C@H](Cc2ccccc2)NC(=O)[C@@H](NC(=O)[C@@H](NC(=O)[C@H](CC(N)=O)NC(=O)[C@@H](NC(=O)[C@H](CCC(N)=O)NC(=O)[C@H](CC(=O)O)NC(=O)[C@H](CC(C)C)NC(=O)[C@H](CO)NC(C)=O)[C@@H](C)CC)C(C)C)[C@@H](C)O)CCCC=CCCC[C@@](C)(C(=O)N[C@@H](CCCCN)C(=O)N[C@@H](CC(C)C)C(=O)N[C@@H](CCC(=O)O)C(=O)N[C@@H](CCC(=O)O)C(=O)N[C@@H](C)C(=O)N[C@H](C(=O)N[C@@]2(C)CCCC=CCCC[C@@](C)(C(=O)N[C@@H](CO)C(=O)N[C@@H](Cc3ccc(O)cc3)C(=O)N[C@H](C(=O)N[C@@H](CC(=O)O)C(=O)N[C@@H](CC(C)C)C(=O)N[C@@H](CCCCN)C(=O)N[C@@H](CCC(=O)O)C(N)=O)[C@@H](C)CC)NC(=O)[C@H](CCC(=O)O)NC(=O)[C@H](CC(C)C)NC(=O)[C@H](CCCCN)NC2=O)[C@@H](C)CC)NC1=O [SEQ ID NO:177, SLDQINVTFLDLX1YEBX2KLEEAIX3KLEX4SYIDLKE] (Ac-SLDQINVTFLDL[S5]YE[Nle][S5]KLEEAI[S5]KLE[S5]SYIDLKE-NH2; staple 13-17, 24-28) | 840 | – | – |
| CC[C@H](C)[C@H](NC(=O)[C@H](Cc1ccc(O)cc1)NC(=O)[C@H](CCC(N)=O)NC(=O)[C@H](CCC(=O)O)NC(=O)[C@H](Cc1ccc(O)cc1)NC(=O)[C@H](CCCCN)NC(=O)CNC(=O)[C@H](CC(C)C)NC(=O)[C@H](CCC(=O)O)NC(=O)[C@H](CCC(N)=O)NC(=O)[C@H](CC(C)C)NC(=O)[C@H](CC(=O)O)NC(=O)[C@@H](NC(=O)[C@H](CC(C)C)NC(=O)[C@H](CO)NC(=O)[C@]1(C)CCCC=CCCC[C@](C)(NC(=O)[C@H](C)NC(=O)[C@@H](NC(=O)[C@H](CCC(=O)O)NC(=O)[C@H](CC(N)=O)NC(=O)[C@H](CC(C)C)NC(=O)[C@]2(C)CCCC=CCCC[C@](C)(NC(=O)[C@H](CCC(N)=O)NC(=O)[C@@H](NC(=O)[C@H](CC(N)=O)NC(=O)[C@@H](NC(=O)[C@@H](NC(=O)[C@H](CO)NC(=O)[C@H](C)NC(=O)[C@H](CC(N)=O)NC(=O)[C@@H](NC(=O)CNC(=O)[C@H](CO)NC(=O)[C@@H](NC(C)=O)[C@@H](C)CC)[C@@H](C)CC)C(C)C)C(C)C)[C@@H](C)CC)C(=O)N[C@@H](CCC(=O)O)C(=O)N[C@@H]([C@@H](C)CC)C(=O)N[C@@H](CC(=O)O)C(=O)N2)C(C)C)C(=O)N[C@@H](CC(N)=O)C(=O)N[C@@H](CC(C)C)C(=O)N[C@@H](CC(N)=O)C(=O)N1)[C@@H](C)CC)C(N)=O [SEQ ID NO:158] | 33 | – | – |
| SLDQINVTFLDLEYEMKKLEEAIKKLEESYIDLKEL [SEQ ID NO:110, reference compound] | – | little to no alpha-helical structure | – |
| CC[C@H](C)[C@H](NC(C)=O)C(=O)N[C@@H](CCC(N)=O)C(=O)N[C@@H](CCCCN)C(=O)N[C@@H](CCC(=O)O)C(=O)N[C@H](C(=O)N[C@@H](CC(=O)O)C(=O)N[C@@H](CCCNC(=N)N)C(=O)N[C@@H](CC(C)C)C(=O)N[C@@H](CC(N)=O)C(=O)N[C@@H](CCC(=O)O)C(=O)N[C@H](C(=O)N[C@@H](C)C(=O)N[C@@H](CCCCN)C(=O)N[C@@H](CC(N)=O)C(=O)N[C@@H](CC(C)C)C(=O)N[C@@H](CC(N)=O)C(=O)N[C@@H](CCC(=O)O)C(=O)N[C@@H](CO)C(=O)N[C@@H](CC(C)C)C(N)=O)C(C)C)[C@@H](C)CC [SEQ ID NO:10, reference compound] | 35 | – | – |
| CC[C@H](C)[C@H](NC(C)=O)C(=O)N[C@@H](CCC(N)=O)C(=O)N[C@@]1(C)CCCC=CCCC[C@@](C)(C(=O)N[C@@H](CC(C)C)C(=O)N[C@@H](CC(N)=O)C(=O)N[C@@H](CCC(=O)O)C(=O)N[C@H](C(=O)N[C@@H](C)C(=O)N[C@@H](CCCCN)C(=O)N[C@@]2(C)CCCC=CCCC[C@@](C)(C(=O)N[C@@H](CC(C)C)C(N)=O)NC(=O)[C@H](CCC(=O)O)NC(=O)[C@H](CC(N)=O)NC(=O)[C@H](CC(C)C)NC2=O)C(C)C)NC(=O)[C@H](CC(=O)O)NC(=O)[C@H]([C@@H](C)CC)NC(=O)[C@H](CCC(=O)O)NC1=O [SEQ ID NO:52, IQX1EIDX2LNEVAKX3LNEX4L] (Ac-IQ[S5]EID[S5]LNEVAK[S5]LNE[S5]L-NH2; staple 3-7, 14-18) | > 1000 | – | < 6 |
